PMC8603350, “A Remote Secondary Binding Pocket Promotes Heteromultivalent Targeting of DC-SIGN” (Journal of the American Chemical Society, 2021)
Numbering of substitutions follows the chain as printed. Entries after “also recorded” stand apart in the source; their conditions may differ.

What was measured:
DC-SIGN ECD [1] = biological target: T1, DC-SIGN ECD (Homo sapiens, UniProt Q9NNX6); assay: KD determination from 19F NMR CSPs; type: binding; conditions: direct observation of CF3 chemical shift; read-out: KD (19F CSP)
T1 construct: DC-SIGN extracellular domain (ECD); made in house; host or cells: E. coli BL21(DE3), pET30b; gene from GenScript
T1 sequence (Q9NNX6 59-404 limits assumed): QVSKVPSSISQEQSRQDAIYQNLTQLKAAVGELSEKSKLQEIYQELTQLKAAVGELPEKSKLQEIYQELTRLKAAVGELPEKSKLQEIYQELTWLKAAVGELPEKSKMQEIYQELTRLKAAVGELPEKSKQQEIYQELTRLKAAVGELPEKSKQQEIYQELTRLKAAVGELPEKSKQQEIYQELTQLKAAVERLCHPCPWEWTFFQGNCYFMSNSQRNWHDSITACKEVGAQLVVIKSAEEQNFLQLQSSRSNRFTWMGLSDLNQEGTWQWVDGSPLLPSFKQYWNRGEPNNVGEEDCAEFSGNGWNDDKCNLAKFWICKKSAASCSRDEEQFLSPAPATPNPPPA

DC-SIGN ECD [2] = biological target: T1, DC-SIGN ECD; assay: Direct 19F R2-filtered NMR binding experiments (CF3 resonance)
Description: KI values were determined as previously described for Langerin and the DC-SIGN CRD.6 Briefly, competitive binding experiments were conducted with 49 at a concentration of 0.1 mM and varying competitor concentrations [I]T. KI and [P]T values were derived from Equation 8 in a two-parameter fit.
R2,obs = R2,f + (R2,b − R2,f)pb […]
θ = cos−1 ( ) ,a = KD + KI + [L]T + [I]T − [P]T
b = ([I]T − [P]T)KD + ([L]T − [P]T)KD + KIKD, c = −KIKD[P]T
KD determination from 19F NMR CSPs
For KD determination from 19F NMR CSPs, samples and measurements were set up as described for 19F R2-filtered NMR but at a single relaxation time T = 0 s. CSP 19F, T were calculated from the chemical shift of the 19F resonance of 48 in the presence of protein δT at increasing ligand concentrations and the chemical shift in absence of protein δf at a concentration of 1 mM via Equation 4.
The KD value was calculated from CSP19F, T values in a two -parameter fit using Equation 10, using a fixed protein concentration [P] T and a CSP19F of 0 ppm as a lower bound. CSP19F,b corresponds to the top asymptote and was kept variable. As in Equation 9, pb represents the fraction of bound protein.

DC-SIGN CRD M270F = biological target: T2, DC-SIGN CRD M270F (Homo sapiens, UniProt Q9NNX6, M270F); assay: 15N HSQC NMR binding experiments with M270F mutant; conditions: absence of Ca2+
T2 construct: His-tagged DC-SIGN CRD wild-type as well as the M270F mutant; His-tag; made in house; host or cells: E. coli BL21(DE3), pET28a; gene from GenScript
T2 sequence (Q9NNX6 263-378 M270F limits assumed): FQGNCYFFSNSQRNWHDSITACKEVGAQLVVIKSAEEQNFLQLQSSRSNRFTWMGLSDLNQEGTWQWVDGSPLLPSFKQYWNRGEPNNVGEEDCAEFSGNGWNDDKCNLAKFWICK

DC-SIGN ECD [3] = biological target: T1, DC-SIGN ECD; assay: 19F NMR reporter displacement assay transferred to DC-SIGN ECD; type: binding; conditions: 0.1 mM reporter 49; for 48 estimated, receptor precipitation above 1 mM
DC-SIGN+ Raji cells = assay: Liposome binding assay, flow cytometry; type: cell-based
Description: If not stated otherwise, all media and supplements for cell culture experiments were purchased from Thermo Fisher Scientific. Raji, THP-1 and U937 cell lines (ATCC) were grown in complete growth medium containing RPMI1640 medium, 10% FCS, 100 U mL-1 Penicillin-Streptomycin and GlutaMax at 37°C and 5% CO2. Cells were monitored with a light microscope (IT40 5PH, VWR) and subcultured every 2 -3 days to maintain cell densities ranging from of 0.5 - 3 x 10^6 cells per mL.
CLR-expressing cell lines were generated as described before.4,27 Briefly, DC-SIGN, Langerin, murine Langerin and murine Dectin-1 cDNAs (Sinobiologicals) were cloned into a lentiviral BIC-PGK-Zeo-T2a-mAmetrine:EF1A construct by Gibson assembly (NEB) according to the manufacturer’s protocol. HEK293 cells were transfected with the lentiviral vector together with third-generation packaging vectors and viral particles were then used for transduction of Raji cells. In analogy, DC-SIGN and Langerin-expressing THP-1 and U937 cell lines were generated by lentiviral transduction.
Liposome binding assay – flow cytometry
Liposome binding to CLR-expressing cells was assayed as previously described.27 Briefly, 0.05 x 10^6 cells were plated in transparent conical-bottom 96 well microtiter plates (Nunc) in a volume of 100 µL medium. Plates were centrifuged at 500 x g for 3 minutes, supernatant was aspirated, and cells were resuspended in 100 µL medium, containing 16 µM liposomes. In control experiments, cells were incubated with medium containing 10 mM EDTA or 50 µg mL-1 mannan for 15 min at 4 °C, prior to liposome application. After 1 h incubation at 4 °C in the dark, cells were centrifuged at 500 x g for 3 min and the supernatant was discarded. Cells wer e resuspended in 200 µL ice-cold medium and analyzed by detecting the co-formulated Alexa 647 dye via flow cytometry with a 654 nm laser and a 670/14 nm filter (Attune Nxt, life technologies).
Flow cytometry data was processed using FlowJo (BD Bioscience). Mean fluorescence intensity (MFI) was further analyzed and plotted using GraphPad Prism (GraphPad […]
To monitor allosteric activation of DC-SIGN by glycomimetic 48, the described protocol was adjusted as follows. DC-SIGN+ Raji cells were plated in transparent conical-bottom 96 well microtiter plates (Nunc) in a volume of 100 µL medium. Plates were centrifuged at 500 x g for 3 minutes, supernatant was aspirated, and cell were resuspended in 25 µL medium supplemented with varying concentrations of monovalent carbohydrates or 0.5 mM 48. Homomultivalent liposomes carrying either natural carbohydrates or 48 were added at a final concentration of 16 µM. Liposome binding was subsequently quantified by measuring Alexa 647 fluorescence in flow cytometry experiments. Statistical significance by means of a student’s t-test was assessed based on averaged normalized MFIs from four biological replicates each conducted as technical duplicates. A p-value < 0.05 was set as significance cut-off.

DC-SIGN CRD = biological target: T3, DC-SIGN CRD (Homo sapiens, UniProt Q9NNX6); assay: 15N HSQC NMR titration; type: binding; conditions: 10 mM CaCl2, MES pH 6.0
T3 construct: His-tagged DC-SIGN CRD wild-type as well as the M270F mutant; His-tag; made in house; host or cells: E. coli BL21(DE3), pET28a; gene from GenScript
T3 sequence (Q9NNX6 263-378 limits assumed): T2 sequence (Q9NNX6 263-378 M270F limits assumed) with F8M

SMILES: NC[C@H]1O[C@H](Oc2ccc(-c3ccc(C(=O)O)cc3)cc2C(F)(F)F)[C@@H](O)[C@@H](O)[C@@H]1O [compound 48]
- Kd (DC-SIGN ECD [1]): 370 ± 60 µM
- Kd (DC-SIGN ECD [2]; direct observation of CF3 relaxation rate R2,obs): 480 ± 100 µM
- apparent KD values lower than the determined KI (DC-SIGN ECD [2]; direct-binding NMR KD vs RDA KI): about 3 fold
- binding to M270F mutant (DC-SIGN CRD M270F): abrogation of 48-binding
- Ki (DC-SIGN ECD [3]): 1150 ± 10 µM
- effect of soluble compound on binding of Fuc-Lip liposomes (DC-SIGN+ Raji cells; 0.5 mM soluble 48, liposomes with 2.5 mol % Fuc-Lip, p < 0.05, n = 4): significantly enhances; also recorded: significantly increased
- binding of homomultivalent liposomes (DC-SIGN+ Raji cells; 42-Lip up to 1.26%, 48 up to 1.66% total lipid concentration): does not show any binding
- molar glycomimetic/Man ratio around which the cooperative binding effect saturates (DC-SIGN+ Raji cells; heteromultivalent liposomes with Man-Lip): ~0.5
- Kd (DC-SIGN CRD): 460 ± 160 µM
